Calls of active or inactive are those of the source. The calls are words filed in the database; no cut-off is given here.
Experiments:
Assay type in all cases: functional, cell-based
[1] = tested on: MOLM-14; assay: Antiproliferative activity against human MOLM14 cells by Cell-Titer Glo assay
[2] = tested on: MV4-11; assay: Antiproliferative activity against human MV4-11 cells by Cell-Titer Glo assay
[3] = tested on: MOLM-13; assay: Antiproliferative activity against human MOLM13 cells by Cell-Titer Glo assay
[4] = tested on: MOLM-13; assay: Induction of apoptosis in human MOLM13 cells assessed as increase in PARP cleavage at 5 uM after 24 hrs by Western blot analysis
[5] = tested on: MOLM-13; assay: Induction of apoptosis in human MOLM13 cells assessed as increase in caspase-3 cleavage at 5 uM after 24 hrs by Western blot analysis
[6] = tested on: MOLM-13; assay: Cell cycle arrest in human MOLM13 cells assessed as accumulation at G0/G1 phase at 5 uM by flow cytometry

| IC50 ([1]; Homo sapiens, MOLM-14) [µM] | IC50 [2] [µM] | IC50 [3] [µM] | SMILES | IC50 ([1]; molm-14) [µM] | Activity [4] | Activity [5] | Activity [6] |
| --- | --- | --- | --- | --- | --- | --- | --- |
| > 10 | > 10 | 6.7 | COC(=O)[C@@H](Cc1ccc(O)c(O)c1)OC(=O)/C=C/c1ccc(O)c(O)c1/C=C/c1ccc(O)c(O)c1 | – | – | – | – |
| > 10 | > 10 | 8.4 | COC(=O)[C@@H](Cc1ccc(O)c(O)c1)OC(=O)/C=C/c1ccc(O)c(O)c1 [METHYL ROSMARINATE] | – | – | – | – |
| 7.1 | > 10 | 2.9 | O=C(/C=C/c1ccc(O)c(O)c1)O[C@H](Cc1ccc(O)c(O)c1)C(=O)O [ROSMARINIC ACID] | – | – | – | – |

The remaining lines, values behind:

| SMILES | IC50 ([1]; Homo sapiens, MOLM-14) [µM] | IC50 [2] [µM] | IC50 [3] [µM] | IC50 ([1]; molm-14) [µM] | Activity [4] | Activity [5] | Activity [6] |
| --- | --- | --- | --- | --- | --- | --- | --- |
| COC(=O)[C@H](O)Cc1ccc(O)c(O)c1 | > 10 | > 10 | 7.5 | – | – | – | – |
| COC(=O)[C@H](O)Cc1ccc2c(c1)O[C@H]([C@H](OC)c1ccc(O)c(O)c1)O2 | > 10 | > 10 | 5.2 | – | – | – | – |
| O=C(O)/C=C/c1ccc(O)c(O)c1 [CAFFEIC ACID] | > 10 | > 10 | 6.4 | – | – | – | – |
| Nc1ccc(-c2ccc3ncc4ccc(=O)n(-c5cccc(C(F)(F)F)c5)c4c3c2)cn1 | < 0.001 | < 0.001 | < 0.001 | – | – | – | – |
| O=C(/C=C/c1ccc(O)c(O)c1/C=C/c1ccc(O)c(O)c1)O[C@H](Cc1ccc(O)c(O)c1)C(=O)O [SALVIANOLIC ACID A] | – | > 10 | 2.5 | 6.2 | – | – | – |
| O=C1C[C@H]2c3cc(O)c(O)cc3[C@H](c3ccc(O)c(O)c3)[C@H]2O1 | 7.1 | > 10 | 2.3 | – | Active | Active | Active |

— ChEMBL document CHEMBL4266028, “Salviachinensines A-F, Antiproliferative Phenolic Derivatives from the Chinese Medicinal Plant Salvia chinensis” (J Nat Prod, 2018)
